How the values were obtained:
[1] = tested on: lymphocytic leukemia P388; test: Lymphocytic leukemia P388 test (intraperitoneal administration); assay type: in vivo, DBA/2 mice; conditions: days 1, 5 and 9
Procedure, shortened: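 DBA/2 mice, single sex, 5-6 per group, inoculated i.p. with 10^6 P388 leukemia cells. Compounds given i.p. at various doses on days 1, 5 and 9; survival followed 30 days, reporting median survival time and treated/control (T/C) survival ratio.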

[2] = tested on: lymphocytic leukemia P388; test: Lymphocytic leukemia P388 test (oral drug administration); assay type: in vivo, DBA/2 mice; conditions: for T/C × 100: efficacy ≥125%
Procedure: The animals used are DBA/2 mice all of one sex, weighing a minimum of 17 g. and all within a 3 gram weight range. There are 5 or 6 animals per test group. The tumor transplant is by intraperitoneal injection of 0.1 ml. of dilute ascitic fluid containing 10^6 cells of lymphocytic leukemia P388. The test compounds are administered intraperitoneally on days one, 5 and 9 (relative to tumor inoculation) at various doses. The animals are weighed and survivors are recorded on a regular basis for 30 days. The median survival time and the ratio of survival time for treated (T)/control (C) animals are calculated. […] The results of this test with representative compounds of the present invention appear in Table I. The criterion for efficacy is T/C×100≥125%.
The procedure used is the same as for the previously described test for lymphocytic leukemia P388 except that the test compounds are administered orally at various doses rather than intraperitoneally. The criterion for efficacy is T/C×100≥125%.

melanotic melanoma B16 = test: Melanotic Melanoma B16 test; assay type: in vivo, C57BC/6 mice
Procedure, shortened: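 C57BC/6 mice (10 per group) were implanted i.p. with B16 melanoma homogenate, then dosed i.p. on days 1–9 at various doses.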

[3] = tested on: Ridgway Osteogenic Sarcoma; test: Ridgway Osteogenic Sarcoma; assay type: in vivo, AKD2 F1 /J mice; conditions: for % Inhibition Tumor Growth / % Showing 50% Tumor Regression / No. Without Tumors/No. Survivors / Tumor: 7 days after therapy stopped; for Median Survival / T/C: 63 days after therapy stopped
Procedure: The animals used are AKD2 F1 /J mice, all of the same sex, weighing a minimim of 17 g. and all within a three-gram weight range. There are normally 8 animals per test group. The tumor is administered subcutaneously by trocar as five 2-mm. fragments per mouse. The test compounds are administered intraperitoneally every 4 days for a total of 6 inoculations beginning on day 15 (relative to tumor inoculation) at various doses. The animals are weighed and survivors are recorded on a regular basis for 90 days. The regression of tumors is recorded in all test animals.

[4] = Storage behaviour of solid; assay type: physicochemical

## CN(C)CCNc1ccc(NCCN(C)C)c2c1C(=O)c1c(O)ccc(O)c1C2=O [1,4-Bis[(2-dimethylaminoethyl)amino]-5,8-dihydroxyanthraquinone]
[1]; 3 mg./kg. i.p.
  Median Survival Time: 19.5 days
[1]; 6 mg./kg. i.p.
  Median Survival Time: 21.0 days
[1]; 12 mg./kg. i.p.
  Median Survival Time: 23.0 days
[1]; 25 mg./kg. i.p.
  Median Survival Time: 20.5 days
[1]; 50 mg./kg. i.p.
  Median Survival Time: 25.0 days
[1]; Mus musculus, P388, ip, 3 mg./kg. i.p., efficacy ≥125%, read-out: T/C × 100
  response vs control in vivo at 3 mg/kg: 217%
[1]; Mus musculus, P388, ip, 6 mg./kg. i.p., efficacy ≥125%, read-out: T/C × 100
  response vs control in vivo at 6 mg/kg: 233%
[1]; Mus musculus, P388, ip, 12 mg./kg. i.p., efficacy ≥125%, read-out: T/C × 100
  response vs control in vivo at 12 mg/kg: 256%
[1]; Mus musculus, P388, ip, 25 mg./kg. i.p., efficacy ≥125%, read-out: T/C × 100
  response vs control in vivo at 25 mg/kg: 228%
[1]; Mus musculus, P388, ip, 50 mg./kg. i.p., efficacy ≥125%, read-out: T/C × 100
  response vs control in vivo at 50 mg/kg: 278%
[2]; 3 mg./kg. oral
  Median Survival Time: 15.0 days
  T/C × 100: 130%
[2]; 6 mg./kg. oral
  Median Survival Time: 16.0 days
  T/C × 100: 139%
[2]; 12 mg./kg. oral
  Median Survival Time: 16.0 days
  T/C × 100: 139%
Melanotic melanoma B16; 3 mg./kg. i.p., days 1 through 9
  Median Survival Time: 25.5 days
Melanotic melanoma B16; 6 mg./kg. i.p., days 1 through 9
  Median Survival Time: 27.0 days
Melanotic melanoma B16; 12 mg./kg. i.p., days 1 through 9
  Median Survival Time: 28.5 days
Melanotic melanoma B16; 25 mg./kg. i.p., days 1 through 9
  Median Survival Time: 24.5 days
Melanotic melanoma B16; Mus musculus, ip, read-out: T/C × 100
  response vs control in vivo at 3 mg/kg: 142%
Melanotic melanoma B16; Mus musculus, ip, 6 mg./kg. i.p., days 1 through 9, efficacy ≥125%, read-out: T/C × 100
  response vs control in vivo at 6 mg/kg: 150%
Melanotic melanoma B16; Mus musculus, ip, 12 mg./kg. i.p., days 1 through 9, efficacy ≥125%, read-out: T/C × 100
  response vs control in vivo at 12 mg/kg: 158%
Melanotic melanoma B16; Mus musculus, ip, 25 mg./kg. i.p., days 1 through 9, efficacy ≥125%, read-out: T/C × 100
  response vs control in vivo at 25 mg/kg: 136%
[3]; 6 mg./kg. i.p.
  % Inhibition Tumor Growth: 19%
  % Showing 50% Tumor Regression: 0%
  No. Without Tumors/No. Survivors: 0/6
  Tumor: 960 (mm.) 2
  Median Survival: 57.5 days
  T/C: 129%
[3]; 12 mg./kg. i.p.
  % Inhibition Tumor Growth: 61%
  % Showing 50% Tumor Regression: 0%
  No. Without Tumors/No. Survivors: 0/3
  Tumor: 470 (mm.) 2
  Median Survival: 37 days
  T/C: 83%
[3]; 25 mg./kg. i.p.
  % Inhibition Tumor Growth: 41%
  % Showing 50% Tumor Regression: 0%
  No. Without Tumors/No. Survivors: 0/8
  Tumor: 653 (mm.) 2
  Median Survival: 78 days
  T/C: 175%
[3]; 50 mg./kg. i.p.
  % Inhibition Tumor Growth: 78%
  % Showing 50% Tumor Regression: 25%
  No. Without Tumors/No. Survivors: 2/6
  Tumor: 263 (mm.) 2
  Median Survival: 92.5 days
  T/C: 208%
[3]; 100 mg./kg. i.p.
  % Inhibition Tumor Growth: 96%
  % Showing 50% Tumor Regression: 28%
  No. Without Tumors/No. Survivors: 2/5
  Tumor: 52 (mm.) 2
  Median Survival: 48 days
  T/C: 108%

## O=C1C2=C(NCCNCCNCCO)CCC(NCCNCCNCCO)=C2C(=O)c2c(O)ccc(O)c21 [Example 33, Leuco-1,4-bis[2-[2-(2-hydroxyethylamino)ethylamino]ethylamino]-5,8-dihydroxyanthraquinone]
[4]; stored at 25° C.
  storage behaviour of solid: coalesces into a solid cake
[4]; stored at -25° C.
  storage behaviour of solid: remains granular
